Measured values as given in US20260234157A1, “COMPOUND AND METHOD FOR TARGETED DEGRADATION OF ANDROGEN RECEPTOR” (Gan & Lee Pharmaceuticals Co., Ltd., priority 2023, published 2026).
Changes are numbered by the printed parent chain. Where two headings read alike, the source gives them in different places.

Assays:
Type in all cases: cell-based
AR protein [1] = molecular target: T1, AR protein (Homo sapiens, UniProt P10275, T878A); assay: Degradation of AR protein in LNCaP cells (Western blot); conditions: for inhibition at 0.01 µM: read-out: Degradation rates of the AR protein in LNCaP cells, 10 nM (%); for inhibition at 0.1 µM: read-out: Degradation rates of the AR protein in LNCaP cells, 100 nM (%)
T1 construct: degradation activity of the compounds disclosed in the present disclosure on AR protein in LNCaP cells; host or cells: LNCaP FGC
T1 sequence (P10275 1-920 T878A): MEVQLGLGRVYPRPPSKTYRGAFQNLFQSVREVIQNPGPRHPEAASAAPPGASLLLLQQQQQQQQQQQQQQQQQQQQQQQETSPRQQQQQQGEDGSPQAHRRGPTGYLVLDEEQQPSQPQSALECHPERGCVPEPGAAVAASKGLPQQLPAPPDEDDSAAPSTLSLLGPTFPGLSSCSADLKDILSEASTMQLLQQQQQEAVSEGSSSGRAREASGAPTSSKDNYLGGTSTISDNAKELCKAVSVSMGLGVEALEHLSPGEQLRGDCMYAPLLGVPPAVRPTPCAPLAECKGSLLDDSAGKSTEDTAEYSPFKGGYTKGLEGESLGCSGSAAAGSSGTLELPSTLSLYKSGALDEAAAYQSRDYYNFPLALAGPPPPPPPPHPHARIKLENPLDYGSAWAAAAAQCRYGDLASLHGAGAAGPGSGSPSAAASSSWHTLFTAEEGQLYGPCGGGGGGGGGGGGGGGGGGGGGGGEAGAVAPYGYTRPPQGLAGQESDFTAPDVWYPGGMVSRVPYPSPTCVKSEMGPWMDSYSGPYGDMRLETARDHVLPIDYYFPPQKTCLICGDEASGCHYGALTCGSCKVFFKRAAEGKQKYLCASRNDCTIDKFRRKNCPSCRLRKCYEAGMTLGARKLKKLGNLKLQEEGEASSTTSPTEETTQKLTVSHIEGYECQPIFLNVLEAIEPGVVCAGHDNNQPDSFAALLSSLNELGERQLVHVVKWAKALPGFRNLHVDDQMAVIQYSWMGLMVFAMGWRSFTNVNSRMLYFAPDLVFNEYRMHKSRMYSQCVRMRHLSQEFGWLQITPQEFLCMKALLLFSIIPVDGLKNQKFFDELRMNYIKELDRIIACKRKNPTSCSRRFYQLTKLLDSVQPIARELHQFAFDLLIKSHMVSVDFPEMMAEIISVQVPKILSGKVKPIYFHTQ
Method in brief: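 AR assessed by SDS-PAGE/Western blot with infrared imaging; band greyscale normalised to GAPDH gave percent degradation.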

VCaP cells = assay: Inhibition of proliferation of VCaP cells (WST-8); conditions: Homo sapiens, read-out: IC50 for inhibiting the proliferation of VCaP cells
Method in brief: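 VCaP FGC cells, 15000 per well in DMEM with 10% FBS, were cultured at 37° C, 5% CO2. On day nine, WST-8 reagent was added to read proliferation.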

AR protein [2] = molecular target: T2, AR protein (Homo sapiens, UniProt P10275); assay: Degradation of AR protein in VCaP cells (Western blot); conditions: 8 hours; for inhibition at 0.01 µM: compound at 10 nM, read-out: Degradation rate of the AR protein in VCaP cells, 10 nM (%); for inhibition at 0.1 µM: compound at 100 nM, read-out: Degradation rate of the AR protein in VCaP cells, 100 nM (%)
T2 construct: degradation activity of the compounds disclosed in the present disclosure on AR protein in VCaP cells; host or cells: VCaP
T2 sequence (P10275 1-920): T1 sequence (P10275 1-920 T878A) with A878T
Method in brief: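 VCaP cells treated with compound alongside solvent controls for 8 h, then lysed in RIPA and protein quantified by BCA. AR detected by SDS-PAGE/Western blot with infrared imaging. Degradation rate calculated from band grayscale, with GAPDH as internal reference.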

LNCaP FGC cells = assay: Inhibition of proliferation of LNCaP cells (WST-8); conditions: Homo sapiens, LNCaP, 96 h
Procedure: The cells were cultured in a cell culture incubator with 5% CO2 at 37° C. overnight. […] On the sixth day, 96 well plates were taken out, and 20 μL of WST-8 (Beytime, C0040) reagent was added to each well.

[3] = LNCaP cells, compound 10 nM, 8 hours, Western blot grayscale, GAPDH internal reference
[4] = LNCaP cells, compound 100 nM, 8 hours, Western blot grayscale, GAPDH internal reference
[5] = VCaP cells, 168 hours, WST-8 absorbance at 450 nm
[6] = LNCaP FGC cells, 96 hours, WST-8 absorbance at 450 nm, read-out: IC50 for inhibiting the proliferation of LNCaP cells

Row | Compound | inhibition at 0.01 µM (AR protein [1]; [3]) [%] | inhibition at 0.1 µM (AR protein [1]; [4]) [%] | IC50 (VCaP cells; [5]) [µM] | inhibition at 0.01 µM (AR protein [2]) [%] | inhibition at 0.1 µM (AR protein [2]) [%] | IC50 (LNCaP FGC cells; [6]) [µM] | inhibition at 0.01 µM (AR protein [1]; LNCaP, 8 h) [%] | inhibition at 0.1 µM (AR protein [1]; LNCaP, 8 h) [%] | IC50 (VCaP cells; VCaP, 168 h) [µM] | IC50 (LNCaP FGC cells; read-out: IC50 for inhibiting the proliferation of LNCaP cells, LNCaP FGC cells, 96 hours, WST-8 absorbance at 450 nm) [µM]
1 | CC1(CN2CCC3(CC2)COc2c3ccc3c2C(=O)N(C2CCC(=O)NC2=O)C3=O)CCN(c2ncc(C(=O)NC3CCC(Oc4ccc(C#N)c(Cl)c4)CC3)cn2)CC1 (stereo not drawn) [Compound 245] | 2 | 45 | 0.1 | 3 | 43 | 1.82 | – | – | – | –
2 | N#Cc1ccc(O[C@H]2CC[C@H](NC(=O)c3ccc(N4CC(CN5CCC6(CC5)COc5cc7c(cc5C6)C(=O)N(C5CCC(=O)NC5=O)C7=O)C4)nn3)CC2)cc1Cl (stereo partly drawn) [Compound 59] | 43 | 66 | 0.11 | 86 | 87 | 0.4 | – | – | – | –
3 | N#Cc1ccc(O[C@H]2CC[C@H](NC(=O)c3ccc(N4CC5(CCC(N6CCC7(CCc8cc9c(cc8O7)C(=O)N(C7CCC(=O)NC7=O)C9=O)CC6)CC5)C4)nn3)CC2)cc1Cl (stereo partly drawn) [Compound 33] | 27 | 61 | 1.7 | 49 | 52 | 2.21 | – | – | – | –
4 | N#Cc1ccc(O[C@H]2CC[C@H](NC(=O)c3ccc(N4CC(N5CCC6(CC5)COc5cc7c(cc56)C(=O)N(C5CCC(=O)NC5=O)C7=O)C4)nn3)CC2)cc1Cl (stereo partly drawn) [Compound 49] | – | – | – | 24 | 61 | – | 24 | 36 | 4 | 2.81
5 | N#Cc1ccc(O[C@H]2CC[C@H](NC(=O)c3ccc(N4CC(CN5CCC6(CCc7cc8c(cc7O6)C(=O)N(C6CCC(=O)NC6=O)C8=O)CC5)C4)nn3)CC2)cc1Cl (stereo partly drawn) [Compound 20] | 13 | 48 | 0.17 | 41 | 54 | 1 | – | – | – | –
6 | N#Cc1ccc(O[C@H]2CC[C@H](NC(=O)c3ccc(N4CCC(O)(CN5CCC6(CC5)COc5c6ccc6c5C(=O)N(C5CCC(=O)NC5=O)C6=O)CC4)nn3)CC2)cc1Cl (stereo partly drawn) [Compound 213] | 47 | 67 | 0.019 | 32 | 75 | 1.32 | – | – | – | –
7 | N#Cc1ccc(O[C@H]2CC[C@H](NC(=O)c3ccc(N4CCC(O)(CN5CCC6(CC5)COc5c6ccc6c5C(=O)N(C5CCC(=O)NC5=O)C6=O)CC4)nn3)CC2)cc1C(F)(F)F (stereo partly drawn) [Compound 214] | 40 | 68 | 0.048 | 7 | 63 | 3.78 | – | – | – | –
8 | N#Cc1ccc(O[C@H]2CC[C@H](NC(=O)c3ccc(N4CC[C@H](CN5CCC6(CC5)COc5cc7c(cc5C6)C(=O)N(C5CCC(=O)NC5=O)C7=O)C4)nn3)CC2)cc1Cl (stereo partly drawn) [Compound 74] | 39 | 79 | 0.6 | 47 | 65 | 0.6 | – | – | – | –
9 | COc1cc(O[C@H]2C(C)(C)[C@H](NC(=O)c3ccc(N4CCC(C#N)(CN5CCC6(CC5)COc5c6ccc6c5CN(C5CCC(=O)NC5=O)C6=O)CC4)cc3)C2(C)C)ccc1C#N (stereo partly drawn) [Compound 208] | 34 | 38 | 0.0035 | 17 | 67 | 0.01 | – | – | – | –
10 | N#Cc1ccc(O[C@H]2CC[C@H](NC(=O)c3ccc(N4CCC5(CC(N6CCC7(CCc8cc9c(cc8O7)C(=O)N(C7CCC(=O)NC7=O)C9=O)CC6)C5)C4)nn3)CC2)cc1Cl (stereo partly drawn) [Compound 35] | 17 | 50 | 0.5 | 47 | 58 | 0.8 | – | – | – | –

Second part, led by results:

Row | inhibition at 0.01 µM (AR protein [1]; [3]) [%] | inhibition at 0.1 µM (AR protein [1]; [4]) [%] | IC50 (VCaP cells; [5]) [µM] | inhibition at 0.01 µM (AR protein [2]) [%] | inhibition at 0.1 µM (AR protein [2]) [%] | IC50 (LNCaP FGC cells; [6]) [µM] | Compound | inhibition at 0.01 µM (AR protein [1]; LNCaP, 8 h) [%] | inhibition at 0.1 µM (AR protein [1]; LNCaP, 8 h) [%] | IC50 (VCaP cells; VCaP, 168 h) [µM] | IC50 (LNCaP FGC cells; read-out: IC50 for inhibiting the proliferation of LNCaP cells, LNCaP FGC cells, 96 hours, WST-8 absorbance at 450 nm) [µM]
11 | 30 | 66 | 0.0045 | 30 | 69 | 43.2 | COc1cc(O[C@H]2C(C)(C)[C@H](NC(=O)c3ccc(N4CCC(C)(CN5CCC6(CCc7cc8c(cc7O6)C(=O)N(C6CCC(=O)NC6=O)C8)CC5)CC4)cc3)C2(C)C)ccc1C#N (stereo partly drawn) [Compound 267] | – | – | – | –
12 | 47 | 36 | 0.0075 | 48 | 81 | 56 | N#Cc1ccc(O[C@H]2CC[C@H](NC(=O)c3ccc(N4CC5(CC(C(=O)N6CCC7(CC6)COc6c7ccc7c6CN(C6CCC(=O)NC6=O)C7=O)C5)C4)nn3)CC2)cc1Cl (stereo partly drawn) [Compound 256] | – | – | – | –
13 | -9 | -1 | > 90 | -28 | 7 | 71.5 | COC1(CN2CC3(CCc4ccc5c(c4O3)C(=O)N(C3CCC(=O)NC3=O)C5)C2)CCN(c2ccc(C(=O)N[C@H]3CC[C@H](Oc4ccc(C#N)c(Cl)c4)CC3)nn2)CC1 (stereo partly drawn) [Compound 138] | – | – | – | –
14 | -3 | 10 | 0.1 | -47 | -5 | 37.9 | COc1cc(O[C@H]2C(C)(C)[C@H](NC(=O)c3ccc(N4CCC(F)(CN5CCC6(CC5)COc5cc7c(cc5C6)C(=O)N(C5CCC(=O)NC5=O)C7=O)CC4)cc3)C2(C)C)ccc1C#N (stereo partly drawn) [Compound 271] | – | – | – | –
15 | 1 | 1 | 3.17 | -4 | 26 | 3.73 | N#Cc1ccc(O[C@H]2CC[C@H](NC(=O)c3ccc(N4CCC5(CCC(N6CCC7(CC6)COc6ccc8c(c6C7)C(=O)N(C6CCC(=O)NC6=O)C8)CC5)CC4)nn3)CC2)cc1Cl (stereo partly drawn) [Compound 149] | – | – | – | –
